According to patent US8357833B2, “Corn plants and seed enhanced for asparagine and protein” (priority 2007, dated 2013):

Legend:
[1] = biological target: T1, Zea mays asparagine synthetase Zm AsnS3 (SEQ ID NO: 6, encoded by SEQ ID NO: 5) (Zea mays, UniProt B5U8J8); test: Kinetics of recombinant his-tagged, refolded maize asparagine synthetase AsnS3 (substrate titration, asparagine by HPLC); assay type: biochemical; conditions: 100 mM Hepes, pH 8.0, 10 mM MgCl2, read-out: Km(NH4^+)
T1 construct: 588 aa
T1 sequence (B5U8J8 1-588): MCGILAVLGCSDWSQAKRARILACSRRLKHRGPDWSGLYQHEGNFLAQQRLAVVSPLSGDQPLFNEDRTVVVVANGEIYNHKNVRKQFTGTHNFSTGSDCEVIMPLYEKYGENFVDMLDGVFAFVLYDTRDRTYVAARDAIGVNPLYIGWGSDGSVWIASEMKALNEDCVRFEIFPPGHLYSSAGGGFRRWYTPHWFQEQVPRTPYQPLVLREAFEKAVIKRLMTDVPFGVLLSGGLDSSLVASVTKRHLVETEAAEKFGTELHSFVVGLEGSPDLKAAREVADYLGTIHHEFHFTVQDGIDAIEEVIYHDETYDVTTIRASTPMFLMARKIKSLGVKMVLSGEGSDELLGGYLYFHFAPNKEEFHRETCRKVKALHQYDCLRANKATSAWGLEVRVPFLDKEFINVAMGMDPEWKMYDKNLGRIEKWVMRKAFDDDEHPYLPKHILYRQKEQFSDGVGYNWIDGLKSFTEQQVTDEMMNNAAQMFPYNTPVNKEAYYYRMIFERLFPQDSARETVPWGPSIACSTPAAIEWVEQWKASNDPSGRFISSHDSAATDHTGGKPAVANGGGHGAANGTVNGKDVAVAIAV
Method: The effect of expression of asparagine synthetase genes on asparagine synthetase activity was measured in transgenic events of pMON79706 and pMON92870. Frozen, ground leaf tissue was aliquoted (200-400 mg) into wells from a precooled 96 deep-well plate. Protein was extracted in Buffer A (100 mM Hepes-OH, pH 8.0, 0.1 mM EDTA, 10 mM MgCl2, 2 mM aspartate, 0.5 mM DTT, 67 mM mercaptoethanol, 20% (v/v) glycerol, 0.1 mM ATP, 1% (v/v) P9599 (Sigma Company), 25 mM KCl). A small amount of sand was added to each well. Buffer A was then added to the leaf tissue in the wells at a ratio of 4:1 (buffer:tissue). The plates were then agitated in a paint shaker for 2 min. to mix the sample and then centrifuged at 5000×g for 10 minutes. The supernatant (100-200 μL) was desalted in a 96-well macro spin plate (SNS S025L, The Nest Group Inc., Southboro, Mass.) equilibrated in buffer A. The supernatant was then either assayed immediately or frozen in liquid nitrogen and maintained at −80° C. until used. […] The mixture was then filtered to remove precipitate and asparagine was measured by HPLC. […]

[2] = biological target: T2, Zea mays asparagine synthetase Zm AsnS4 (SEQ ID NO: 51, encoded by SEQ ID NO: 50) (Zea mays, UniProt B5U8J9); test: Kinetics of recombinant his-tagged, refolded maize asparagine synthetase AsnS4 (substrate titration, asparagine by HPLC); assay type: biochemical; conditions: 100 mM Hepes, pH 8.0, 10 mM MgCl2, read-out: Km(NH4^+)
T2 construct: 588 aa
T2 sequence (B5U8J9 1-588): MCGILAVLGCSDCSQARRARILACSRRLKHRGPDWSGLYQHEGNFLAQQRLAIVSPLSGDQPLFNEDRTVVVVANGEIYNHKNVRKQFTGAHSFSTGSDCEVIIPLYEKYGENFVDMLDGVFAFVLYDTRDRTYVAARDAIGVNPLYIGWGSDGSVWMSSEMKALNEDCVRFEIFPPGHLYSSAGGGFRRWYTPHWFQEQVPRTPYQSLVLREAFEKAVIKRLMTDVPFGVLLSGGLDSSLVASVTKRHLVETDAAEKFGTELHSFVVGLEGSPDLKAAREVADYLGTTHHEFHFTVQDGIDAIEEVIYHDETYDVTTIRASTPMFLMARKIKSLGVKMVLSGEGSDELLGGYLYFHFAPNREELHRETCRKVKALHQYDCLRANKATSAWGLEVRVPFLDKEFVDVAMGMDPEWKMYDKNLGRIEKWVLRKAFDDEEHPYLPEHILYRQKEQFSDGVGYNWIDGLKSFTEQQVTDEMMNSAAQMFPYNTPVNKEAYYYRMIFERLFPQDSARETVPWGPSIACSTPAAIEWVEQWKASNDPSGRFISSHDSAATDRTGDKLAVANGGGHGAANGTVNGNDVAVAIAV
Method: The effect of expression of asparagine synthetase genes on asparagine synthetase activity was measured in transgenic events of pMON79706 and pMON92870. Frozen, ground leaf tissue was aliquoted (200-400 mg) into wells from a precooled 96 deep-well plate. Protein was extracted in Buffer A (100 mM Hepes-OH, pH 8.0, 0.1 mM EDTA, 10 mM MgCl2, 2 mM aspartate, 0.5 mM DTT, 67 mM mercaptoethanol, 20% (v/v) glycerol, 0.1 mM ATP, 1% (v/v) P9599 (Sigma Company), 25 mM KCl). A small amount of sand was added to each well. Buffer A was then added to the leaf tissue in the wells at a ratio of 4:1 (buffer:tissue). The plates were then agitated in a paint shaker for 2 min. to mix the sample and then centrifuged at 5000×g for 10 minutes. The supernatant (100-200 μL) was desalted in a 96-well macro spin plate (SNS S025L, The Nest Group Inc., Southboro, Mass.) equilibrated in buffer A. The supernatant was then either assayed immediately or frozen in liquid nitrogen and maintained at −80° C. until used. To assay asparagine synthetase activity, desalted protein extracts (10-50 μL) were added to wells containing 100 μL assay solution (100 mM Hepes, pH 8.0, 10 mM MgCl2, 2 mM aspartate, 5 mM DTT, 10 mM ATP, 1 mM amino(oxy)acetic acid (aspartate amino transferase inhibitor), 1 mM aspartic semialdehyde (asparaginase inhibitor). To start the reaction, glutamine (final concentration of 2 mM for standard assay) was added to the solution, which was then mixed. The assay mixture was then incubated for 1 to 2 hours. The reaction was then stopped by the addition of an equal volume of 20% (w/v) trichloroacetic acid. The mixture was then filtered to remove precipitate and asparagine was measured by HPLC. Sample size was increased from 0.5 μL to 2.5 μL for HPLC, excitation wavelength was reduced from 340 nm to 235 nm, and fluorimeter gain was increased from 10 to 13. […]

Structure (SMILES): N [NH4^+]
- Km [1]: 8.4 mM
- Km [2]: 9 mM
